According to paper PMC10756276, “Highly specific σ2R/TMEM97 ligand FEM-1689 alleviates neuropathic pain and inhibits the integrated stress response” (Proceedings of the National Academy of Sciences of the …, 2023):
Entries after “also recorded” stand apart in the source; their conditions may differ.

Assays:
H3 = target: T1, H3 (Homo sapiens, UniProt Q9Y5N1); assay: PDSP competitive binding assay; conditions: 10 µM test article; read-out: Ki: primary assay inhibition of radioligand binding, H3
T1 construct: purchased NIMH Psychoactive Drug Screening Program (PDSP), University of North Carolina at Chapel Hill
T1 sequence (Q9Y5N1 whole entry): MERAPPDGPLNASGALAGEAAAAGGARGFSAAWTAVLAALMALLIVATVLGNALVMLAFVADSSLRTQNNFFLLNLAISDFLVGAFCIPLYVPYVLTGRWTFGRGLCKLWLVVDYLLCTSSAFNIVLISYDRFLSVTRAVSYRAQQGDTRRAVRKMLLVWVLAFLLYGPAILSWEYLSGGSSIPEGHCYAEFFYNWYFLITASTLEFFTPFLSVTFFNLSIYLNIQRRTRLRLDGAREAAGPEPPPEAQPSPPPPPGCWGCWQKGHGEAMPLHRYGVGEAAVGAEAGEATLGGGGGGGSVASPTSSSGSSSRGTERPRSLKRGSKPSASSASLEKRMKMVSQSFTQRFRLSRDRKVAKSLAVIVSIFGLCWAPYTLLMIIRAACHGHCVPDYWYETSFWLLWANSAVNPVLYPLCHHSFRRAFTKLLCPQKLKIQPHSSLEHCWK

5HT1A = target: T2, 5HT1A (Homo sapiens, UniProt P08908); assay: PDSP competitive binding assay; conditions: 10 µM test article; read-out: Ki: primary assay inhibition of radioligand binding, 5HT1A
T2 construct: purchased NIMH Psychoactive Drug Screening Program (PDSP), University of North Carolina at Chapel Hill
T2 sequence (P08908 whole entry): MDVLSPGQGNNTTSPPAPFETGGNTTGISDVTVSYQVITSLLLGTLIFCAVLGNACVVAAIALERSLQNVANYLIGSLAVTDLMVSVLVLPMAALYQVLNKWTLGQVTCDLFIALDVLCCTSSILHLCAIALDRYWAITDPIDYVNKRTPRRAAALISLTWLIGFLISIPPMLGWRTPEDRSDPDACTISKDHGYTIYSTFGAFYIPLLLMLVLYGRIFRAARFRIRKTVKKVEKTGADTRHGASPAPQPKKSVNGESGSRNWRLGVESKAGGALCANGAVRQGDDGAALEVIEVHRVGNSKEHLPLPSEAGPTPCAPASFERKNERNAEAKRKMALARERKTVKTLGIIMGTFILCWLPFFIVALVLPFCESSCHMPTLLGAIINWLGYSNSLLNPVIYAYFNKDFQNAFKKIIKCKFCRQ

[1] = tested on: p-eIF2α, eIF2A, p-PERK, BiP in HEK293T cells; assay: Western blot of ISR-related proteins in HEK293T cells; type: cell-based, human; conditions: HEK293T, 0.1, 1, 10, 100 nM, 16 h (overnight)
Description: Huma n e mbryon ic kidn ey (HEK) 293T ce lls (ATCC # C RL- 321 6) were ge nerously dona ted by th e Ca mpb ell Lab (UT Dallas). Cell stock s were previously fr ozen at 1 million cells/ml in 90% fetal bov ine s erum (F BS, ThermoFisher #SH300880340) and 10% DMSO. Cells were grown in complete medium (10% FBS, 1% Pen- Strep in DMEM/F12 + GlutaMax (Gibco #10565- 018) in T-75 flasks (Greiner Bio- One #658175). Cells were maintained at 37 °C with 5% CO2 and passaged twice before being plated onto either 96-well or 6-well plates for ICC/spectrophotometry and western blotting, respectively. Cells were counted using the TC20 automated cell counter (Bio- R ad #1450102) using a 1:1 dilution of trypan blue (Gibco #15250061).
Concentr ations were transformed to […] values and data w as fit to a non- linear regression curve (inhibitor vs response, varia ble slop e , four p aram eters) constrain ed at top at 1 00, bott om at p -eIF2α levels at 300nM, […]
HEK cells were plated at 60,000 cells per well onto six-well plates (ThermoFisher # 351146) for 24 hours before being treated w ith F EM- 1689 overnight. Protein extractions and western blotting w as perfor med as previous ly published (10) . In brief, media fr om the cells was removed and cells were washed once with 1X
PBS. Cells were lysed in the well with radioimmunoprecipitation assay (RIPA) buffer consisting of 25 mM Tris, 150 mM NaCl, 0.1% SDS, 0.5% Na deoxycholate, 1% Triton X-100 with pr otease and phosphatas e inhibitor cocktails (Sigma Aldrich P8340, P5726, P0044 – 1:100 each). Cells were centr ifuged at 4 °C at 14,000 rpm for 10 min. The supernatant was used for downstream analysis. Protein was quantif ied using the Pierce BC A Protein Assay kit (Thermo Scientific, #23225) according to the manufacturer’s instructions.
Prote in samp les were de na tured usin g 4X L aem mli Sa mple buff er (BioR ad #1 610 747) and h eat ed at 95 °C for 5 min. 20 µg of protein samples were loaded onto 4- 20% Stain- Free Criterion TGX gels (BioRad #5678094). Gels were run in Tris/Glycine/SDS running buffer ( BioRad #1610772) at 120V for roughly 1.5 hours. St ain- Free gels wer e activated for 5 min pr ior to t he transf er step. Protein was transferred for 10 min onto low fluorescence poly vinylidene difluor ide (PVDF ) using a TransBlot Transfer kit (BioRad #1704275) and a Transblot Turbo transfer system (BioRad). Onc e transferred, total protein was imaged immediately using a ChemiDoc MP system (BioRad). Blots were allowed to dry for 5 min and were blocked with 5% non- fat milk in Tr is buffered saline (T BS)-Tween 20 (0.05%). Antibodies were diluted in 1% non- fat m ilk in TBS- Twe en 20. Primary ant ibo dies used in this st udy w ere: p- eIF 2α (1:1000, C ell Signaling #3398), t-eIF2α […]

Beta 3 = target: T3, Beta 3 (Homo sapiens, UniProt P13945); assay: PDSP competitive binding assay; conditions: 10 µM test article; read-out: Ki: primary assay inhibition of radioligand binding, Beta 3
T3 construct: purchased NIMH Psychoactive Drug Screening Program (PDSP), University of North Carolina at Chapel Hill
T3 sequence (P13945 whole entry): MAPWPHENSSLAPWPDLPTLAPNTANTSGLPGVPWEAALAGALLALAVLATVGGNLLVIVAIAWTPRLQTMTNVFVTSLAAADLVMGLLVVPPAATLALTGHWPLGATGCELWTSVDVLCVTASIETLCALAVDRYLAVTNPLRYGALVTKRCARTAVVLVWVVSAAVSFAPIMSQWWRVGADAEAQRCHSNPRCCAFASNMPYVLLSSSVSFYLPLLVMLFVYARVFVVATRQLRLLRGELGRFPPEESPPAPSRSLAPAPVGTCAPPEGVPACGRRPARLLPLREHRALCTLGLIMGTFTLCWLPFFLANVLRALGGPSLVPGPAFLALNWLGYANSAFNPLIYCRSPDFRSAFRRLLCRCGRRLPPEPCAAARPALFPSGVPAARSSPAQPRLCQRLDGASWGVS

**Q.** What does the source list for `OCCCN1CC[C@@H]2C[C@H]1c1cc(-c3ccc(C(F)(F)F)cc3)ccc12` [FEM-1689]?
**A.** inhibition at 10 µM (H3): < 50%; inhibition at 10 µM (5HT1A): < 50%; BiP level (western blot) [1]: remained stable; also recorded: remained unchanged; eIF2A level (western blot) [1]: concentration-dependent reduction; also recorded: significant reduction; p-PERK level (western blot) [1]: concentration-dependent reduction; also recorded: significant reduction; p-eIF2α level (western blot) [1]: concentration-dependent reduction; also recorded: significant reduction; inhibition at 10 µM (Beta 3): < 50%
